Test results published in ChEMBL document CHEMBL2434931, “Synthesis and antitumor activities of novel thiourea α-aminophosphonates from dehydroabietic acid” (Eur J Med Chem, 2013).
pIC50: −log10 of the molar value. Activity calls are given as the source filed them. The rule behind the calls is not given here.

Legend:
[1] = system: NCI-H460; experiment: Cytotoxicity against human NCI-H460 cells after 3 days by MTT assay; type: functional, cell-based; conditions: NCI-H460, 72 h
[2] = system: A549; experiment: Cytotoxicity against human A549 cells after 3 days by MTT assay; type: functional, cell-based; conditions: A549, 72 h
[3] = system: HepG2; experiment: Cytotoxicity against human HepG2 cells after 3 days by MTT assay; type: functional, cell-based; conditions: HepG2, 72 h
[4] = system: SK-OV-3; experiment: Cytotoxicity against human SKOV3 cells after 3 days by MTT assay; type: functional, cell-based; conditions: SK-OV-3, 72 h
[5] = system: A549; experiment: Induction of apoptosis in human A549 cells assessed as decrease in mitochondrial membrane potential at 15 uM after 12 to 24 hrs by JC-1 staining-based fluorescence microscopic analysis; type: functional, cell-based
[6] = system: A549; experiment: Induction of apoptosis in human A549 cells assessed as necrotic/late apoptotic cells at 25 uM after 12 hrs by Annexin V-propidium iodide staining-based FACS flow cytometric analysis (reference value: 0.4%); type: functional
[7] = system: A549; experiment: Induction of apoptosis in human A549 cells assessed as early apoptotic cells at 20 uM after 12 hrs by Annexin V-propidium iodide staining-based FACS flow cytometric analysis (reference value: 0.2%); type: functional
[8] = system: A549; experiment: Induction of apoptosis in human A549 cells assessed as early apoptotic cells at 25 uM after 12 hrs by Annexin V-propidium iodide staining-based FACS flow cytometric analysis (reference value: 0.2%); type: functional
[9] = system: A549; experiment: Cytotoxicity against human A549 cells assessed as necrotic cells at 15 uM after 12 to 24 hrs by AO/EB staining-based fluorescence microscopic analysis; type: cell-based; conditions: a549, 15 µM
[10] = system: A549; experiment: Induction of apoptosis in human A549 cells assessed as cell budding at 15 uM after 12 to 24 hrs by AO/EB staining-based fluorescence microscopic analysis; type: functional
[11] = system: A549; experiment: Induction of apoptosis in human A549 cells at 15 uM after 12 to 24 hrs by Hoechst 33258 staining-based fluorescence microscopic analysis; type: functional, cell-based
[12] = system: A549; experiment: Induction of apoptosis in human A549 cells after 12 hrs by Annexin V-propidium iodide staining-based FACS flow cytometric analysis; type: functional, cell-based
[13] = system: A549; experiment: Induction of apoptosis in human A549 cells assessed as DNA fragmentation at 15 uM after 12 to 24 hrs by TUNEL assay; type: functional, cell-based
[14] = system: A549; experiment: Induction of apoptosis in human A549 cells assessed as DNA ladder formation at 10 to 30 uM by agarose gel electrophoresis; type: functional, cell-based
[15] = system: A549; experiment: Induction of apoptosis in human A549 cells assessed as necrotic/late apoptotic cells at 20 uM after 12 hrs by Annexin V-propidium iodide staining-based FACS flow cytometric analysis (reference value: 0.4%); type: functional
[16] = system: A549; experiment: Induction of apoptosis in human A549 cells assessed as membrane blebbing at 15 uM after 12 to 24 hrs by AO/EB staining-based fluorescence microscopic analysis; type: functional, cell-based
[17] = system: A549; experiment: Induction of apoptosis in human A549 cells assessed as pycnosis at 15 uM after 12 to 24 hrs by AO/EB staining-based fluorescence microscopic analysis; type: functional, cell-based

SMILES	pIC50 [1]	pIC50 [2]	pIC50 [3]	pIC50 [4]	other results
CCOP(=O)(OCC)C(NC(=S)NC(=O)[C@]1(C)CCC[C@]2(C)c3ccc(C(C)C)cc3C(=O)C[C@@H]12)c1cccc2ccccc12 (stereo not given in full)	< 4.30	4.49	< 4.30	4.56	–
CCOP(=O)(OCC)C(NC(=S)NC(=O)[C@]1(C)CCC[C@]2(C)c3ccc(C(C)C)cc3/C(=N\O)C[C@@H]12)c1ccc2ccccc2c1 (stereo not given in full)	4.57	< 4.30	4.68	4.39	–
CCOP(=O)(OCC)C(NC(=S)NC(=O)[C@]1(C)CCC[C@]2(C)c3ccc(C(C)C)cc3/C(=N\O)C[C@@H]12)c1ccccc1Cl (stereo not given in full)	4.54	4.48	< 4.30	4.40	–
CCOP(=O)(OCC)C(NC(=S)NC(=O)[C@]1(C)CCC[C@]2(C)c3ccc(C(C)C)cc3C(=O)C[C@@H]12)c1cccc(C)c1 (stereo not given in full)	4.37	4.43	< 4.30	< 4.30	–
CCOP(=O)(OCC)C(NC(=S)NC(=O)[C@]1(C)CCC[C@]2(C)c3ccc(C(C)C)cc3C(=O)C[C@@H]12)c1ccccc1Cl (stereo not given in full)	4.44	4.65	4.40	4.56	–
CCOP(=O)(OCC)C(NC(=S)NC(=O)[C@]1(C)CCC[C@]2(C)c3ccc(C(C)C)cc3C(=O)C[C@@H]12)c1ccccc1 (stereo not given in full)	4.68	4.67	4.33	4.37	–
O=c1[nH]cc(F)c(=O)[nH]1 [FLUOROURACIL]	4.36	4.46	4.52	4.61	–
CCOP(=O)(OCC)C(NC(=S)NC(=O)[C@]1(C)CCC[C@]2(C)c3ccc(C(C)C)cc3C(=O)C[C@@H]12)c1cccc(F)c1 (stereo not given in full)	4.40	4.48	4.43	< 4.30	–
CCOP(=O)(OCC)C(NC(=S)NC(=O)[C@]1(C)CCC[C@]2(C)c3ccc(C(C)C)cc3/C(=N\O)C[C@@H]12)c1ccc(Br)cc1 (stereo not given in full)	4.65	4.72	4.57	4.90	–
CCOP(=O)(OCC)C(NC(=S)NC(=O)[C@]1(C)CCC[C@]2(C)c3ccc(C(C)C)cc3/C(=N\O)C[C@@H]12)c1ccccc1F (stereo not given in full)	4.71	5.04	5.01	4.70	–
CC(C)c1ccc2c(c1)CC[C@H]1[C@](C)(C(=O)O)CCC[C@]21C [DEHYDROABIETIC ACID]	4.07	4.10	4.07	4.08	–
CCOP(=O)(OCC)C(NC(=S)NC(=O)[C@]1(C)CCC[C@]2(C)c3ccc(C(C)C)cc3/C(=N\O)C[C@@H]12)c1ccc(C)cc1 (stereo not given in full)	4.65	4.75	4.96	5.05	–
CCOP(=O)(OCC)C(NC(=S)NC(=O)[C@]1(C)CCC[C@]2(C)c3ccc(C(C)C)cc3C(=O)C[C@@H]12)c1cccc(OC)c1 (stereo not given in full)	4.94	4.85	4.80	5.08	–
CCOP(=O)(OCC)C(NC(=S)NC(=O)[C@]1(C)CCC[C@]2(C)c3ccc(C(C)C)cc3/C(=N\O)C[C@@H]12)c1cccc(F)c1 (stereo not given in full)	4.88	4.54	4.76	4.60	–
CCOP(=O)(OCC)C(NC(=S)NC(=O)[C@]1(C)CCC[C@]2(C)c3ccc(C(C)C)cc3/C(=N\O)C[C@@H]12)c1ccc(F)cc1 (stereo not given in full)	4.75	5.15	4.88	4.94	Activity [5]: Active; Activity [6]: 17.7%; Activity [7]: 14.4%; Activity [8]: 34%; Activity [9]: Non-toxic; Activity [10]: Active; Activity [11]: Active; Activity [12]: Dose-dependent effect; Activity [13]: Active; Activity [14]: Active; Activity [15]: 5.3%; Activity [16]: Active; Activity [17]: Active
CCOP(=O)(OCC)C(NC(=S)NC(=O)[C@]1(C)CCC[C@]2(C)c3ccc(C(C)C)cc3C(=O)C[C@@H]12)c1ccccc1OC (stereo not given in full)	4.53	4.70	< 4.30	4.63	–
CCOP(=O)(OCC)C(NC(=S)NC(=O)[C@]1(C)CCC[C@]2(C)c3ccc(C(C)C)cc3/C(=N\O)C[C@@H]12)c1cccc2ccccc12 (stereo not given in full)	4.43	4.55	4.55	4.40	–

SMILES	pIC50 [1]	pIC50 [2]	pIC50 [3]	pIC50 [4]	other results
CCOP(=O)(OCC)C(NC(=S)NC(=O)[C@]1(C)CCC[C@]2(C)c3ccc(C(C)C)cc3C(=O)C[C@@H]12)c1ccc(Br)cc1 (stereo not given in full)	4.55	4.30	< 4.30	4.43	–
CCOP(=O)(OCC)C(NC(=S)NC(=O)[C@]1(C)CCC[C@]2(C)c3ccc(C(C)C)cc3C(=O)C[C@@H]12)c1cccc(Br)c1 (stereo not given in full)	4.38	4.37	< 4.30	4.31	–
CCOP(=O)(OCC)C(NC(=S)NC(=O)[C@]1(C)CCC[C@]2(C)c3ccc(C(C)C)cc3C(=O)C[C@@H]12)c1ccc(OC)cc1 (stereo not given in full)	4.61	4.58	< 4.30	4.30	–
CCOP(=O)(OCC)C(NC(=S)NC(=O)[C@]1(C)CCC[C@]2(C)c3ccc(C(C)C)cc3/C(=N\O)C[C@@H]12)c1ccccc1 (stereo not given in full)	4.43	4.57	4.57	4.66	–
CCOP(=O)(OCC)C(NC(=S)NC(=O)[C@]1(C)CCC[C@]2(C)c3ccc(C(C)C)cc3/C(=N\O)C[C@@H]12)c1cccc(C)c1 (stereo not given in full)	4.42	4.89	4.90	4.54	–
CCOP(=O)(OCC)C(NC(=S)NC(=O)[C@]1(C)CCC[C@]2(C)c3ccc(C(C)C)cc3/C(=N\O)C[C@@H]12)c1ccc(OC)cc1 (stereo not given in full)	4.42	4.63	4.77	4.51	–
CCOP(=O)(OCC)C(NC(=S)NC(=O)[C@]1(C)CCC[C@]2(C)c3ccc(C(C)C)cc3C(=O)C[C@@H]12)c1cccc(Cl)c1 (stereo not given in full)	< 4.30	4.36	< 4.30	< 4.30	–
CCOP(=O)(OCC)C(NC(=S)NC(=O)[C@]1(C)CCC[C@]2(C)c3ccc(C(C)C)cc3C(=O)C[C@@H]12)c1ccc(C)cc1 (stereo not given in full)	4.61	4.65	4.82	4.93	–
CCOP(=O)(OCC)C(NC(=S)NC(=O)[C@]1(C)CCC[C@]2(C)c3ccc(C(C)C)cc3/C(=N\O)C[C@@H]12)c1cccc(Cl)c1 (stereo not given in full)	4.55	4.72	4.88	4.91	–
CCOP(=O)(OCC)C(NC(=S)NC(=O)[C@]1(C)CCC[C@]2(C)c3ccc(C(C)C)cc3C(=O)C[C@@H]12)c1ccc(F)cc1 (stereo not given in full)	4.65	4.76	4.34	4.52	–
CCOP(=O)(OCC)C(NC(=S)NC(=O)[C@]1(C)CCC[C@]2(C)c3ccc(C(C)C)cc3/C(=N\O)C[C@@H]12)c1ccccc1OC (stereo not given in full)	4.73	4.57	5.06	4.75	–
CCOP(=O)(OCC)C(NC(=S)NC(=O)[C@]1(C)CCC[C@]2(C)c3ccc(C(C)C)cc3C(=O)C[C@@H]12)c1ccc2ccccc2c1 (stereo not given in full)	4.70	4.63	4.60	4.61	–
CCOP(=O)(OCC)C(NC(=S)NC(=O)[C@]1(C)CCC[C@]2(C)c3ccc(C(C)C)cc3C(=O)C[C@@H]12)c1ccccc1F (stereo not given in full)	4.44	< 4.30	4.31	4.35	–
CCOP(=O)(OCC)C(NC(=S)NC(=O)[C@]1(C)CCC[C@]2(C)c3ccc(C(C)C)cc3/C(=N\O)C[C@@H]12)c1ccc(Cl)cc1 (stereo not given in full)	4.62	5.02	4.67	4.78	–
CCOP(=O)(OCC)C(NC(=S)NC(=O)[C@]1(C)CCC[C@]2(C)c3ccc(C(C)C)cc3C(=O)C[C@@H]12)c1ccc(Cl)cc1 (stereo not given in full)	4.39	4.52	4.40	4.50	–
CCOP(=O)(OCC)C(NC(=S)NC(=O)[C@]1(C)CCC[C@]2(C)c3ccc(C(C)C)cc3/C(=N\O)C[C@@H]12)c1cccc(Br)c1 (stereo not given in full)	4.52	4.46	4.37	4.42	–
